Entries after “also recorded” stand apart in the source; their conditions may differ. Where two headings read alike, the source gives them in different places.
Tests used:
[1] = Oral bioavailability / in vivo pharmacokinetics; conditions: when used as a drug; found by the inventors by means of experiments
[2] = tested on: SGC-7901 cell line of gastric cancer; assay: Cell proliferation assay (MTT), SGC-7901; assay type: cell-based; conditions: 1-100 μmol/L, 48 h, FIG. 7-8
Experimental: (§1) Cell Proliferation Assay (MTT): The experiment assaying the inhibition of dimethylamino glaucocalyxin A hydrochloride salt (hereinafter referred to as GH02) and glaucocalyxin A (i.e. GLA) on cell proliferation of cancer cell lines was performed as follows: cells of cancer cell lines were adjusted to a density of 10^4/100 μL and were seeded into 96-well plates at 100 μL per well and cultured overnight until the cells were completely adherent and grown up to 70-80% confluence. […] Subsequently, the supernatant was removed, 150 μL DMSO was added to each well and incubated with shaking for 10 min, and then the absorbance was measured at 490 nm on a microplate reader. Inhibitory rate of the cell proliferation=[(absorbance of the control group−absorbance of blank)−(absorbance of the medication group−absorbance of blank)]/(absorbance of the control group−absorbance of blank)% As shown in FIG. 4 to FIG. 6, MDA-MB-231 and MCF-7 are cell lines of breast cancer, SGC-7901 is a cell line of gastric cancer, U251 is a cell line of glioma, and A549 is a cell line of lung cancer.

[3] = tested on: A549 cell line of lung cancer; assay: Cell proliferation assay (MTT), A549; assay type: cell-based; conditions: 1-100 μmol/L, 48 h, FIG. 7-8
Experimental: as §1

U251 cell line of glioma = assay: Cell proliferation assay (MTT), U251; assay type: cell-based; conditions: 1-100 μmol/L, 48 h, FIG. 7-8
Experimental: as §1

[4] = tested on: MDA-MB-231 breast cancer cell line; assay: Cell proliferation assay (MTT), MDA-MB-231; assay type: cell-based; conditions: 48 h; for Inhibitory rate of the cell proliferation versus concentration: 1-100 μmol/L; for IC50 for the inhibition of proliferation, compared among five cell lines: MTT
Experimental: Cell Proliferation Assay (MTT): The experiment assaying the inhibition of dimethylamino glaucocalyxin A hydrochloride salt (hereinafter referred to as GH02) and glaucocalyxin A (i.e. GLA) on cell proliferation of cancer cell lines was performed as follows: cells of cancer cell lines were adjusted to a density of 10^4/100 μL and were seeded into 96-well plates at 100 μL per well and cultured overnight until the cells were completely adherent and grown up to 70-80% confluence. The mother liquid of GH02 and GLA (both of which concentrations were 100 mM) were diluted with complete medium, respectively, to final concentrations of 1, 3.125, 6.25, 12.5, 25, 50, 100 μmol/L, and then such diluted solutions were added into wells of 96-well plates, with each concentration being performed in 4 replicates, and the group without cells acting as blank control, and then incubated in the incubator at […]. After incubation for 48 h, MTT was added to each well to a final concentration of 0.5 mg/ml and further incubated in the incubator at […] for 4 h. Subsequently, the supernatant was removed, 150 μL DMSO was added to each well and incubated with shaking for 10 min, and then the absorbance was measured at 490 nm on a microplate reader. Inhibitory rate of the cell proliferation=[(absorbance of the control group−absorbance of blank)−(absorbance of the medication group−absorbance of blank)]/(absorbance of the control group−absorbance of blank)% As shown in FIG. 4 to FIG. 6, MDA-MB-231 and MCF-7 are cell lines of breast cancer, SGC-7901 is a cell line of gastric cancer, U251 is a cell line of glioma, and A549 is a cell line of lung cancer.

Water solubility = assay type: physicochemical; conditions: found by the inventors by means of experiments
[5] = tested on: MCF-7 cell line of breast cancer; assay: Cell proliferation assay (MTT), MCF-7; assay type: cell-based; conditions: 1-100 μmol/L, 48 h, FIG. 7-8
Experimental: as §1

[6] = background statement; cited from earlier work
[7] = background statement; cited from earlier work; remark: listed apart in the source

SMILES	oral bioavailability [1]	Inhibitory rate of the cell proliferation versus concentration [2]	Inhibitory rate of the cell proliferation versus concentration [3]	Inhibitory rate of the cell proliferation versus concentration (U251 cell line of glioma)	Inhibitory rate of the cell proliferation versus concentration ([4]; FIG. 7-8, hydrochloride)	IC50 for the inhibition of proliferation, compared among five cell lines ([4]; FIG. 4-6, hydrochloride)	water solubility (Water solubility)	Inhibitory rate of the cell proliferation versus concentration [5]	water solubility [6]	bioavailability in vivo [7]	half-life in vivo [7]	Inhibitory rate of the cell proliferation versus concentration ([4]; FIG. 7-8)	IC50 for the inhibition of proliferation, compared among five cell lines ([4]; FIG. 4-6)
CN(C)CC1C(=O)C23C(O)C1CCC2[C@]1(C)CCC(=O)C(C)(C)[C@H]1C[C@H]3O.Cl (some centres unmarked) [GH02, dimethylamino glaucocalyxin A hydrochloride]	high oral bioavailability	increased with the increase of the concentration of GH02	increased with the increase of the concentration of GH02	increased with the increase of the concentration of GH02	increased with the increase of the concentration of GH02; also recorded: highest inhibitory rate	lowest IC50 values	good water solubility	increased with the increase of the concentration of GH02					
C=C1C(=O)C23C(O)C1CCC2[C@]1(C)CCC(=O)C(C)(C)[C@H]1C[C@H]3O (stereo partly drawn) [GLA, Kaur-16-ene-3,15-dione,(7α, 14R)—]		increased with the increase of the concentration of GLA	increased with the increase of the concentration of GLA	increased with the increase of the concentration of GLA				increased with the increase of the concentration of GLA	poor water solubility	low bioavailability	short half-life	increased with the increase of the concentration of GLA; also recorded: highest inhibitory rate	lowest IC50 values
